Reference: patent US7939265B2, “Agents for and method of quantifying binding” (Badrilla Limited, priority 2004, dated 2011)
Where no end group is shown, it is not given here. [ ]: non-standard residue; d: D form. pS = N[C@@H](COP(=O)(O)O)C(=O)O

Target: polyclonal antiserum SERCA PS-38
Experiment: Peptide inhibition of antiserum SERCA PS-38 binding to antigen
Set-up: species or system rabbit
Conditions: competition against polyclonal antiserum SERCA PS-38
Description: Phosphorylated Ca^2+-ATPase peptide on Ser-38 residue (^31KLKERWGS (PO4)NEL^41) was prepared by the CaMKII phosphorylation of peptide ^31KLKERWGSNEL^41. The phosphopeptide was purified to homogeneity by reverse phase high performance liquid chromatography. Peptide was conjugated to keyhole limpet haemocyanin (KLH) using carbodiimide cross linkage (3) and dialysed extensively against buffer (50 mM Tris-HCl pH 7.2, 150 mM NaCl). Adult New Zealand White rabbits were immunised with ˜150 μg KLH and attached peptide at 6 weeks intervals and immune serum collected 11 days after immunisations. Serum was prepared and stored at −70° C. A polyclonal antiserum is described herein: SERCA PS-38 raised to the phosphorylated peptide.
The phosphorylation of SERCA2 on Ser-38 has been described as a regulatory feature capable of very significant activation of Ca2+-ATPase activity. This site, although unique to SERCA2, is contained within a segment of the protein which is highly conserved between SERCA1 and SERCA2 particularly from residue 39 onwards. […] By analogy with SERCA1, for which two high resolution structures exist the Ser-38 site of phosphorylation on SERCA2 is predicted to be in a surface exposed, highly mobile segment of the protein. […]

## 31KLKERWGS(PO4)NEL41 (KLKERWG[pS]NEL; UniProt P16615 31-41, looked up, fragment) [phosphopeptide]
read-out: inhibition of antibody binding to antigen (IC50)
  IC50: 0.018 µM

## 31KLKERWGSNEL41 (UniProt P16615 31-41, looked up, fragment) [dephosphorylated peptide, equivalent dephosphorylated SERCA2a Ser-38 peptide]
  interference with antibody:antigen recognition: unable to interfere with antibody:antigen recognition
